Read-outs that look alike come from different tables or passages of the source.
Key:
[1] = system: WT and YAC128 striatal neurons
Description: (§1) Briefly, plasmid was diluted in TE (in mM: 1 Tris-HCl pH 7.3, 1 mM EDTA), followed by the addition of CaCl2 (in mM: 2.5 CaCl2 in 10 HEPES, pH 7.2). The DNA solution was carefully added to 2×HEBS (in mM: 12 dextrose, 50 HEPES, 10 KCl, 280 NaCl and 1.5 Na2HPO4·2H2O, pH 7.2) while bubbling air through the solution. The mixture was then incubated for 25 min at room temperature. The precipitates were added dropwise to the coverslips in Neurobasal medium and incubated for 80 minutes at 37° C. The DNA-Ca^2+-phosphate precipitates were dissolved with freshly-made dissolution medium (Neurobasal medium with 20 mM HEPES, pH 6.8) and incubated for 7 min at room temperature. The transfected neurons were then washed with Neurobasal medium and transferred back to their original dishes containing conditioned culture medium until DIV12.
MitoDsRed-transfected striatal neurons were fixed with 4% paraformaldehyde (pre-warmed at 37° C.) for 20 minutes, permeabilized in 0.2% Triton X-100 in PBS for 2 minutes and blocked for 1 hour at room temperature in 3% (w/v) BSA in PBS. […] Confocal images were obtained as stacks, at 0.46 μm intervals along the z axis, using a Plan-Apochromat/1.4NA 63× lens on an Axio Observer.Z1 confocal microscope (Zeiss Microscopy, Germany) with Zeiss LSM 710 software. FIJI (ImageJ, National Institute of Health, USA) was used for image analysis. […] To optimally resolve individual mitochondria, a threshold was applied followed by the Analyze Particles function to trace mitochondrial outlines. For S1R and IP3R3 fluorescence, a threshold was set similarly to the one described above, and Integrated Density was obtained. S1R and IP3R3 Integrated Density was calculated inside of mitochondrial ROIs selection to obtain ER co-localization with mitochondria.

[2] = system: eIF2α phosphorylation in HEK 293 cells; conditions: for concentration of maximal effect on reducing eIF2α phosphorylation: cells expressing Htt96Q
Description: Transfections of HEK 293 cells were carried out according to the calcium phosphate method. STHdh^Q7/7 cells are a murine striatal cell line with a stable knock-in of the full-length wild type (WT) human Htt containing a polyglutamine stretch of 7 glutamines (Trettel et al. 2000). […] No cell line used is listed as a commonly misidentified cell line. Cell lines were not authenticated. To reduce any risk of cross-contamination they were grown for a limited number of passages. Transient transfections of NIH 3T3 and STHdh^Q7/7 cells were performed using an MP-100 Microporator (Digital Bio) or ViaFect™ Transfection Reagent (Cat.No. E4981) (Promega), according to the manufacturer's protocols.
Cells were lysed in PBS containing 1% Triton X-100, 0.5% sodium deoxycholate with protease inhibitors and centrifuged to pellet insoluble aggregates, debris and nuclei. Phosphatase inhibitor cocktail 2 and 3 and 10 mM […] phosphate were added to the lysis buffer to inhibit phosphatases for detection of phosphorylated proteins. Supernatants were separated from pellets and incubated in loading buffer for 5 min at 100° C., pellets were incubated for 10 min at 100° C. After SDS-PAGE and transfer to nitrocellulose membrane, blocking was done in 5% low-fat milk and 0.1% Tween-20 in PBS for 1 h. Incubation with the primary antibody was overnight at 4° C. and after three washes in 0.1% Tween-20 in PBS, incubation with the appropriate secondary antibody was for 1 h at room temperature. After washing, enhanced chemiluminescence assay was performed and the membrane was exposed and quantified in a Bio-Rad ChemiDocXRS Imaging System (Bio-Rad, Hercules, CA).

[3] = system: HD human lymphoblasts; conditions: 24 h pre-treatment
Description: The lymphoblasts were passaged 1:3 every five to six days. For conducting experiments, the lymphoblasts were collected and centrifuged at 145×g for 5 min. The cell pellet was resuspended in fresh growth medium. Lymphoblasts between passage number 5 and 20 were used in each experiment.
Mitochondrial membrane potential (Δψm) was assessed in cortical and striatal neurons using the positively changed fluorescent probe TMRM (tetramethylrhodamine methyl ester) (Thermo Fisher Sci., catalog no: T668) and in cortical/striatal co-cultures and lymphoblasts using an equivalent probe, TMRE (tetramethylrhodamine ethyl ester) (Abcam, catalog no. ab113852).
TMRE assay: Primary neurons and lymphoblasts in suspension were cultured in 6-well plates.

[4] = system: WT and YAC128 striatal neurons; conditions: 1 μM, 24 h
Description: To obtain pure cortical and striatal neurons, tissue was micro-dissected in HBSS supplemented with 0.3% fatty acid free BSA (Sigma-Aldrich, catalog no: A8806). Tissue from embryos with the same genotype were pooled and digested with 0.003% trypsin in HBSS, then mechanically digested. […] (Sigma-Aldrich, catalog no: T9128) was used to block the trypsin. […] Cultures were incubated at 37° C. with 5% CO2. After 3 days in vitro (DIV) half of the medium was replaced with fresh supplemented Neurobasal medium containing 5-fluoro-2′-deoxyuridine (5-FdU, 5 μM final concentration in the medium; Sigma-Aldrich, catalog no: F0503) to reduce dividing non-neuronal cells. At DIV 7 half of the medium was again replaced with fresh, and cells were used at DIV12.
The ultrathin sections were prepared using Leica Ultracut UCT (Leica, Vienna, Austria) and contrasted with uranyl acetate and lead citrate. […] All mitochondria of 6-7 different cells were snapped per condition and per independent experiment. Number of mitochondria-ER contacts sites (MERCS), MERCS length, ER and mitochondria profile areas, ER width and mitochondria aspect ratio (the ratio between the major and minor axes of mitochondria) were quantified. Number of MERCS per mitochondria was obtained by dividing number of MERCS per number of mitochondria profiles. Percentage of mitochondria surface covered by ER was measured by dividing the MERCS length by mitochondria perimeter and multiplying by 100. MERCS were considered when the distance between ER and mitochondria <40 nm.

[5] = system: YAC128 striatal neurons; conditions: 1 μM
Description: as §1

[6] = YAC128 striatal neurons, 1 μM, 24 h
[7] = YAC128 striatal neurons, p<0.0001

CCCN1CCC(c2cccc(S(C)(=O)=O)c2)CC1 [Pridopidine, 4-[3-(methylsulfonyl)phenyl]-1-propyl-piperidine]
S1R co-localization with mitochondria ([1]; Y128 neurons, 1 μM, 24 h, p<0.0001): increase in IP3R and S1R co-localization with mitochondria | IP3R co-localization with mitochondria ([1]; Y128 neurons, 1 μM, 24 h, p=0.0001): increase in IP3R and S1R co-localization with mitochondria | total S1R protein levels ([1]; Y128 striatal neurons): restores S1R levels to WT levels | S1R total levels in neurites [1, 6]: significantly increases S1R levels | S1R total levels in soma [1, 6]: significantly increases S1R levels | reduction of eIF2α-phosphorylation levels compared to the untreated control ([2]; HEK293 cells expressing Htt96Q, 24 h, dose-dependent 0 to 3 μM): 3.6 fold | phosphorylation of eIF2α ([2]; Htt96Q-expressing cells, high doses of 30 and 150 μM): no effect | concentration of maximal effect on reducing eIF2α phosphorylation ([2]; after 8 hours): 3 µM | concentration of maximal effect on reducing eIF2α phosphorylation ([2]; after 24 hours): 3 µM | eIF2α phosphorylation ([2]; cells expressing WT Htt20Q): unaffected by pridopidine treatment | TG-induced ER stress as measured by eIF2α-P ([2]; cells expressing myc-Htt20Q, 2 μg/ml thapsigargin): down to the levels of untreated cells | MMP (TMRE signal) after H2O2 ([3]; HD human lymphoblasts, 5 μM, then H2O2 6 h): significant rescue effect | restoration of membrane potential ([3]; human lymphoblasts, 10 μM, then 0.1 mM H2O2 6 h, p=0.1389): less efficacious and shows less restoration of membrane potential | concentration of maximal effect on MMP (bell-shaped dose-response) ([3]; human lymphoblasts, then 0.1 mM H2O2 6 h): 5 µM | percent of mitochondrial surface in contact with ER ([4]; WT neurons, p=0.0339): significantly increases the percent of mitochondrial surface in contact with ER | proportion of elongated mitochondria (aspect ratio) ([4]; Y128 striatal neurons, p=0.0044): increases the proportion of elongated mitochondria in Y128 striatal neurons to WT levels | ER width ([4]; YAC128 neurons, p<0.0001): restores the abnormal ER width | number of MERCS per mitochondria [4, 7]: increasing the number of MERCS per mitochondria | percent of mitochondrial surface in contact with ER [4, 7]: increasing the number of MERCS per mitochondria and the percent of mitochondrial surface in contact with ER | velocity of motile mitochondria ([5]; YAC128 neurons, p<0.05): This decrease was ameliorated | proportion of motile mitochondria ([5]; YAC128 striatal neurons, p=0.0286): significantly increases the proportion of motile mitochondria

Source: patent US12685725B2, “Pridopidine for the treatment of mitochondrial-associated diseases and disorders and endoplasmic reticulum (ER) stress” (PRILENIA NEUROTHERAPEUTICS LTD., priority 2019, dated 2026)
